Test results taken from ChEMBL document CHEMBL4014291, “Tripodal squaramide conjugates as highly effective transmembrane anion transporters” (Bioorg Med Chem Lett, 2017).
The source made the active and inactive calls. The rule behind the calls is not given here.

Tests used:
[1] = Ionophoric activity across egg yolk L-alpha-phosphatidylcholine-based large unilamellar vesicles loaded with KCl assessed as chloride ion efflux at 1 mol% after 300 seconds in presence of NaNO3 loaded external vesicles by electrode technique
[2] = (§1) Ionophoric activity across pyranine dye encapsulated pH 7 egg yolk L-alpha-phosphatidylcholine-based large unilamellar vesicles assessed as chloride ion transport by measuring initial rate constant for induction of pH discharge at 0.0078 mol% in presence of NaCl loaded external vesicles by fluorescence method (reference value: 0.81 +/- 0.22 10^-2/min)
[3] = Ionophoric activity across egg yolk L-alpha-phosphatidylcholine-based large unilamellar vesicles loaded with NaCl assessed as release of chloride ion after 300 seconds in presence of NaNO3 loaded external vesicles by electrode technique
[4] = Ionophoric activity across pyranine dye encapsulated pH 7 egg yolk L-alpha-phosphatidylcholine-based large unilamellar vesicles assessed as chloride ion transport by measuring induction of pH discharge in presence of NaCl loaded external vesicles by fluorescence method
[5] = Ionophoric activity across pyranine dye encapsulated pH 7 egg yolk L-alpha-phosphatidylcholine-based large unilamellar vesicles assessed as bromide ion transport by measuring induction of pH discharge in presence of NaBr loaded external vesicles by fluorescence method
[6] = Ionophoric activity across pyranine dye encapsulated pH 7 egg yolk L-alpha-phosphatidylcholine-based large unilamellar vesicles assessed as iodide ion transport by measuring induction of pH discharge in presence of NaI loaded external vesicles by fluorescence method
[7] = Ionophoric activity across pyranine dye encapsulated pH 7 egg yolk L-alpha-phosphatidylcholine-based large unilamellar vesicles assessed as nitrate ion transport by measuring induction of pH discharge in presence of NaNO3 loaded external vesicles by fluorescence method
[8] = Binding affinity to tetrabutylammonium chloride anion after 2 mins by spectrophotometric method
[9] = Binding affinity to tetrabutylammonium chloride anion by 1H NMR spectrophotometric method
[10] = Binding affinity to tetramethylammonium sulfate anion after 2 mins by spectrophotometric method
[11] = as §1, with “0.0313” for “0.0078”
[12] = as §1, with “0.0625” for “0.0078”
[13] = as §1, with “0.125” for “0.0078”
[14] = as §1, with “0.25” for “0.0078”
[15] = as §1, with “bromide” for “chloride”, “NaBr” for “NaCl”, “2.08” for “0.81”, “0.19” for “0.22”
[16] = as §1, with “bromide” for “chloride”, “0.0156” for “0.0078”, “NaBr” for “NaCl”, “2.08” for “0.81”, “0.19” for “0.22”
[17] = as §1, with “bromide” for “chloride”, “0.0313” for “0.0078”, “NaBr” for “NaCl”, “2.08” for “0.81”, “0.19” for “0.22”
[18] = as §1, with “bromide” for “chloride”, “0.0625” for “0.0078”, “NaBr” for “NaCl”, “2.08” for “0.81”, “0.19” for “0.22”
[19] = as §1, with “bromide” for “chloride”, “0.125” for “0.0078”, “NaBr” for “NaCl”, “2.08” for “0.81”, “0.19” for “0.22”
[20] = as §1, with “iodide” for “chloride”, “0.0039” for “0.0078”, “NaI” for “NaCl”, “3.52” for “0.81”
[21] = as §1, with “iodide” for “chloride”, “NaI” for “NaCl”, “3.52” for “0.81”
[22] = as §1, with “iodide” for “chloride”, “0.0156” for “0.0078”, “NaI” for “NaCl”, “3.52” for “0.81”
[23] = as §1, with “iodide” for “chloride”, “0.0313” for “0.0078”, “NaI” for “NaCl”, “3.52” for “0.81”
[24] = as §1, with “iodide” for “chloride”, “0.0625” for “0.0078”, “NaI” for “NaCl”, “3.52” for “0.81”
[25] = as §1, with “nitrate” for “chloride”, “0.00781” for “0.0078”, “NaNO3” for “NaCl”, “2.24” for “0.81”, “0.52” for “0.22”
[26] = as §1, with “nitrate” for “chloride”, “0.01563” for “0.0078”, “NaNO3” for “NaCl”, “2.24” for “0.81”, “0.52” for “0.22”
[27] = as §1, with “nitrate” for “chloride”, “0.03125” for “0.0078”, “NaNO3” for “NaCl”, “2.24” for “0.81”, “0.52” for “0.22”
[28] = as §1, with “nitrate” for “chloride”, “0.0625” for “0.0078”, “NaNO3” for “NaCl”, “2.24” for “0.81”, “0.52” for “0.22”
[29] = as §1, with “nitrate” for “chloride”, “0.125” for “0.0078”, “NaNO3” for “NaCl”, “2.24” for “0.81”, “0.52” for “0.22”
[30] = Ionophoric activity across egg yolk L-alpha-phosphatidylcholine-based large unilamellar vesicles loaded with LiCl assessed as chloride ion efflux at 1 mol% after 300 seconds in presence of NaNO3 loaded external vesicles by electrode technique
[31] = Ionophoric activity across egg yolk L-alpha-phosphatidylcholine-based large unilamellar vesicles loaded with RbCl assessed as chloride ion efflux at 1 mol% after 300 seconds in presence of NaNO3 loaded external vesicles by electrode technique
[32] = Ionophoric activity across egg yolk L-alpha-phosphatidylcholine-based large unilamellar vesicles loaded with CsCl assessed as chloride ion efflux at 1 mol% after 300 seconds in presence of NaNO3 loaded external vesicles by electrode technique
[33] = Ionophoric activity across pyranine dye encapsulated pH 7 egg yolk L-alpha-phosphatidylcholine-based large unilamellar vesicles assessed as sulfate ion transport by measuring induction of pH discharge up to 3 mol% in presence of Na2SO4 loaded external vesicles by fluorescence method
[34] = Ionophoric activity across egg yolk L-alpha-phosphatidylcholine-based large unilamellar vesicles loaded with NaCl assessed as chloride transportat 1 mol% after 300 seconds in presence of NaSO4 loaded external vesicles by electrode technique
[35] = Binding affinity to tetrabutylammonium sulphate anion by 1H NMR spectrophotometric method
[36] = as §1, with “0.5” for “0.0078”
[37] = as §1, with “1” for “0.0078”
[38] = as §1, with “bromide” for “chloride”, “0.25” for “0.0078”, “NaBr” for “NaCl”, “2.08” for “0.81”, “0.19” for “0.22”
[39] = Ionophoric activity across egg yolk L-alpha-phosphatidylcholine-based large unilamellar vesicles loaded with LiCl assessed as chloride ion efflux at 3 mol% after 300 seconds in presence of NaNO3 loaded external vesicles by electrode technique
[40] = Ionophoric activity across egg yolk L-alpha-phosphatidylcholine-based large unilamellar vesicles loaded with KCl assessed as chloride ion efflux at 3 mol% after 300 seconds in presence of NaNO3 loaded external vesicles by electrode technique
[41] = Ionophoric activity across egg yolk L-alpha-phosphatidylcholine-based large unilamellar vesicles loaded with RbCl assessed as chloride ion efflux at 3 mol% after 300 seconds in presence of NaNO3 loaded external vesicles by electrode technique
[42] = Ionophoric activity across egg yolk L-alpha-phosphatidylcholine-based large unilamellar vesicles loaded with CsCl assessed as chloride ion efflux at 3 mol% after 300 seconds in presence of NaNO3 loaded external vesicles by electrode technique
[43] = as §1, with “nitrate” for “chloride”, “0.25” for “0.0078”, “NaNO3” for “NaCl”, “2.24” for “0.81”, “0.52” for “0.22”
[44] = as §1, with “nitrate” for “chloride”, “0.0313” for “0.0078”, “NaNO3” for “NaCl”, “2.24” for “0.81”, “0.52” for “0.22”
[45] = Ionophoric activity across HPTS dye encapsulated pH 7 egg yolk L-alpha-phosphatidylcholine-based large unilamellar vesicles assessed as chloride ion transport by measuring induction of pH discharge in presence of NaCl loaded external vesicles by fluorescence method

| SMILES | Activity [3] | EC50 [4] [mol%] | EC50 [5] [mol%] | EC50 [6] [mol%] | EC50 [7] [mol%] | Ka [8] | logKa [8] | Ka [10] [×10⁵ /M] | logKa [10] | K [11] [×10⁻² /min] | K [13] [×10⁻² /min] | K [14] [×10⁻² /min] | K [16] [×10⁻² /min] | K [17] [×10⁻² /min] | K [18] [×10⁻² /min] | K [19] [×10⁻² /min] | K [20] [×10⁻² /min] | K [21] [×10⁻² /min] | K [22] [×10⁻² /min] | K [23] [×10⁻² /min] | other results |
| --- | --- | --- | --- | --- | --- | --- | --- | --- | --- | --- | --- | --- | --- | --- | --- | --- | --- | --- | --- | --- | --- |
| O=c1c(NCCN(CCNc2c(Nc3ccc(C(F)(F)F)cc3)c(=O)c2=O)CCNc2c(Nc3ccc(C(F)(F)F)cc3)c(=O)c2=O)c(Nc2ccc(C(F)(F)F)cc2)c1=O | Dose-dependent effect | 0.14 | 0.13 | 0.06 | 0.11 | 7.03 ×10² /M | 2.84 | 4.79 | 5.64 | 1.68 | 4.04 | 5.41 | 3.37 | 4.31 | 7.27 | 11 | 3.94 | 5.2 | 6.27 | 9.99 | Activity [1]: inactive; K [2]: 1.27 ×10⁻² /min; logKa [9]: 2.65; K [12]: 2.69 ×10⁻² /min; K [15]: 2.59 ×10⁻² /min; K [24]: 14.5 ×10⁻² /min; K [25]: 2.53 ×10⁻² /min; K [26]: 3.17 ×10⁻² /min; K [27]: 4.91 ×10⁻² /min; K [28]: 7.45 ×10⁻² /min; K [29]: 11.4 ×10⁻² /min; Activity [30]: inactive; Activity [31]: inactive; Activity [32]: inactive; Activity [33]: inactive; Activity [34]: inactive; logKa [35]: 4.87 |
| O=c1c(NCCN(CCNc2c(Nc3cc(C(F)(F)F)cc(C(F)(F)F)c3)c(=O)c2=O)CCNc2c(Nc3cc(C(F)(F)F)cc(C(F)(F)F)c3)c(=O)c2=O)c(Nc2cc(C(F)(F)F)cc(C(F)(F)F)c2)c1=O | Dose-dependent effect | 0.75 | 0.49 | 0.05 | 0.23 | 2.94 ×10³ /M | 3.47 | > 1 | > 5 | 1.32 | 2.57 | 3.87 | 2.22 | 2.89 | 3.85 | 6.24 | 3.7 | 4.41 | 5.92 | 7.67 | K [36]: 6.63 ×10⁻² /min; K [37]: 9.42 ×10⁻² /min; K [38]: 10.8 ×10⁻² /min; K [24]: 10.6 ×10⁻² /min; K [26]: 2.77 ×10⁻² /min; K [28]: 4.52 ×10⁻² /min; K [29]: 6.9 ×10⁻² /min; Activity [39]: inactive; Activity [40]: inactive; Activity [41]: inactive; Activity [42]: inactive; K [43]: 10.2 ×10⁻² /min; K [44]: 3.2 ×10⁻² /min; Activity [33]: inactive; Activity [34]: inactive |
| O=C(Nc1ccccc1)Nc1ccc(N2COc3c(c4c(c5c3CN(c3ccc(NC(=O)Nc6ccccc6)cc3)CO5)CN(c3ccc(NC(=O)Nc5ccccc5)cc3)CO4)C2)cc1 | – | – | – | – | – | – | – | – | – | – | – | – | – | – | – | – | – | – | – | – | EC50 [45]: 0.49 mol% |
